Calls of active or inactive are those of the source.
Assays:
INS1 = assay: beta cell apoptosis inhibitors, cytokine rescue, dose response, luminescence, retest (AID 449756); type: functional, cell-based; conditions: Rattus norvegicus;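 also: cell death triggered by IL-1 beta plus TNF-alpha plus IFN-gamma mixture; protective hits raise ATP signal compared with cytokine alone wells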
[1] = inhibitors of intracellular T. cruzi replication, confirmation, NIH3T3 host cells, beta-gal luminescence (AID 2044); type: functional, cell-based;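 also: intracellular parasites grown in NIH/3T3 mouse fibroblasts as host cells; luminescent beta-galactosidase reporter signal from transgenic T. cruzi replicating inside host cells; inhibitors lower the luminescence signal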
[2] = HepG2 cell cytotoxicity, dose response, cytotoxicity control for non-replicating M. tuberculosis project (AID 489018); type: functional; conditions: Mycobacterium tuberculosis
[3] = biological target: FAD-linked sulfhydryl oxidase ALR (Homo sapiens, UniProt P55789); assay: inhibitors of human ALR sulfhydryl oxidase, dose response, biochemical, H2O2 detection, luminescence, cherry-pick (AID 493248)
[4] = cytotoxicity toward NIH3T3 fibroblasts, dose response, counter-screen, cell-based, ATP luminescence, mouse fibroblasts (AID 2010); type: functional;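 also: cells exposed to compound for about 90 hours before reading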
[5] = Vero E6 cell cytotoxicity, dose response, cytotoxicity control for non-replicating M. tuberculosis project, secondary assay (AID 492998); type: functional, VeroE6; conditions: Vero C1008
Large T antigen = Large T antigen (Simian virus 40, UniProt P03070); type: functional, Betapolyomavirus macacae;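 also: Confirmatory-stage PubChem screen for compounds that inhibit SV40 T antigen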
cells = type: functional
[6] = THP-1 cell cytotoxicity, dose response, cytotoxicity control for non-replicating M. tuberculosis project (AID 489025); type: functional
Vero [7] = assay: cells; type: functional; conditions: Chlorocebus sabaeus
Vero [8] = assay: cells; type: functional, cell-based; conditions: Chlorocebus sabaeus
P388 = assay: cells; type: functional; conditions: Mus musculus
P388/ADR = assay: cells; type: functional; conditions: Mus musculus
SN12K1 = assay: cells; type: functional; conditions: Homo sapiens
Nonstructural protein 1 = Nonstructural protein 1 (Influenza A virus, UniProt Q194T2); type: functional, Influenza A virus (A/California/07/2009(H1N1))
Cytochrome P450 3A4 = Cytochrome P450 3A4 (Homo sapiens, UniProt P08684);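 also: CYP3A4 tested as one member of a cytochrome P450 panel screen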
[9] = biological target: T1, Replicative DNA helicase DnaB (Mycobacterium tuberculosis, UniProt P9WMR3); assay: DnaB intein splicing inhibitors, dose response, biochemical, cell-free fluorescence (AID 449749); type: functional
T1 sequence (P9WMR3 whole entry): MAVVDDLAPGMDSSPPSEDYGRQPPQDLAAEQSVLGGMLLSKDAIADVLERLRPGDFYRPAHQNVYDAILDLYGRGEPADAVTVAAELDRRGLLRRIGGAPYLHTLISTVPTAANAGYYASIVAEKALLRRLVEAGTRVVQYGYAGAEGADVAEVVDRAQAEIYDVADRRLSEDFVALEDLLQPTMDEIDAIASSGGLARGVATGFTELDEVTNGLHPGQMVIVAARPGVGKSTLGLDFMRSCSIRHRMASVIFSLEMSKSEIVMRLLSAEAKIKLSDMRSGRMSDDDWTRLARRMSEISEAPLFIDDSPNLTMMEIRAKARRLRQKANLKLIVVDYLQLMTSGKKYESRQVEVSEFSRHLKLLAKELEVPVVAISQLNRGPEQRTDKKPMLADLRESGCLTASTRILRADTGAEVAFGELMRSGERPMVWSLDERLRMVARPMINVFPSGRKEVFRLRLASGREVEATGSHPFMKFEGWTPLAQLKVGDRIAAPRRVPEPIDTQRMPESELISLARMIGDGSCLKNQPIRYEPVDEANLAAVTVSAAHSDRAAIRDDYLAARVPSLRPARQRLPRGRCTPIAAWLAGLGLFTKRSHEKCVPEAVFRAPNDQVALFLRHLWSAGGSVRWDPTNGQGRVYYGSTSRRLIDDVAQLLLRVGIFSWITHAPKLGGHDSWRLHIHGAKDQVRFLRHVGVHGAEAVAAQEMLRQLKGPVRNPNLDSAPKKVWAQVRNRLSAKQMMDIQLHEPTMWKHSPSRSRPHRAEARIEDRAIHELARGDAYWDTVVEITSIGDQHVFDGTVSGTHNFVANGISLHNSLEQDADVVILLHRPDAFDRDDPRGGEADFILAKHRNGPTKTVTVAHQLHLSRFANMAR

Protein RecA = biological target: T2, Protein RecA (Mycobacterium tuberculosis, UniProt P9WHJ3); assay: Fluorescence Cell-Free Homogeneous Dose Retest to Identify Inhibitors of RecA-Intein Splicing Activity. [Related pubchem assays (depositor defined):AID2097, AID2223, AID489010, AID492950]; type: functional
T2 sequence (P9WHJ3 whole entry): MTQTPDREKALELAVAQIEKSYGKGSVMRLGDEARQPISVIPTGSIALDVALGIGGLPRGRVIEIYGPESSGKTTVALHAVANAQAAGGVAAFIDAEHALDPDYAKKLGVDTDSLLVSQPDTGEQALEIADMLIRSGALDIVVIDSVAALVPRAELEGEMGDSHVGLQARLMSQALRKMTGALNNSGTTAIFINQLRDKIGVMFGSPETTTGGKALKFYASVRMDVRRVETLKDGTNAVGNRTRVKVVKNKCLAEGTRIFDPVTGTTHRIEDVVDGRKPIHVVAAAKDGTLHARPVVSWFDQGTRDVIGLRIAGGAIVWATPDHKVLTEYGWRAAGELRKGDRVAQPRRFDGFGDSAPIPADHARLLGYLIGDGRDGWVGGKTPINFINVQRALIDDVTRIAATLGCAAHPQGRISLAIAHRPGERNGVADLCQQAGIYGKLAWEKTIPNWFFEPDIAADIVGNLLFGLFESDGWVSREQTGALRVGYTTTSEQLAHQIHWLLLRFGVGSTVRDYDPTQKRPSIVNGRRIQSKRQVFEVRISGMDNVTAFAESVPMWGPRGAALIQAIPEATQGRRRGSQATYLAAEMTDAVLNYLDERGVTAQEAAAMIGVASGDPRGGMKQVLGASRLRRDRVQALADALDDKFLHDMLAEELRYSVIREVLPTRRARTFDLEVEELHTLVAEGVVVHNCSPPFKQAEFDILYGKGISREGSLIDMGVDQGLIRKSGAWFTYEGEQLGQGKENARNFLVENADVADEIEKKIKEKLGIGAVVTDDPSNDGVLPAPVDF

Cytochrome P450 3A4, sequence (P08684 whole entry): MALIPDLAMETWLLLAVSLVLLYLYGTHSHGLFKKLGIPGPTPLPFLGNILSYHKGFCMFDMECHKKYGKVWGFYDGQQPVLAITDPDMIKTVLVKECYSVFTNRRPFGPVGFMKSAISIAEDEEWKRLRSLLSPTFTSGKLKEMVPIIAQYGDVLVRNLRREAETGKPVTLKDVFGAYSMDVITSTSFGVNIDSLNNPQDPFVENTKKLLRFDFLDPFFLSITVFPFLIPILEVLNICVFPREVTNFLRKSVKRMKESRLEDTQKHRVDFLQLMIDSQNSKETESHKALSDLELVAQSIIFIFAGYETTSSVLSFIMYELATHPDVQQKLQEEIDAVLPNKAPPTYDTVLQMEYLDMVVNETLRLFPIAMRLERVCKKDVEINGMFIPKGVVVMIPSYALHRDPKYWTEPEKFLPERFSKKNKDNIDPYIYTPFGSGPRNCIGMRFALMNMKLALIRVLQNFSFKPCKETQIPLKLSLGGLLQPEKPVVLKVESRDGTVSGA
Large T antigen, sequence (P03070 whole entry): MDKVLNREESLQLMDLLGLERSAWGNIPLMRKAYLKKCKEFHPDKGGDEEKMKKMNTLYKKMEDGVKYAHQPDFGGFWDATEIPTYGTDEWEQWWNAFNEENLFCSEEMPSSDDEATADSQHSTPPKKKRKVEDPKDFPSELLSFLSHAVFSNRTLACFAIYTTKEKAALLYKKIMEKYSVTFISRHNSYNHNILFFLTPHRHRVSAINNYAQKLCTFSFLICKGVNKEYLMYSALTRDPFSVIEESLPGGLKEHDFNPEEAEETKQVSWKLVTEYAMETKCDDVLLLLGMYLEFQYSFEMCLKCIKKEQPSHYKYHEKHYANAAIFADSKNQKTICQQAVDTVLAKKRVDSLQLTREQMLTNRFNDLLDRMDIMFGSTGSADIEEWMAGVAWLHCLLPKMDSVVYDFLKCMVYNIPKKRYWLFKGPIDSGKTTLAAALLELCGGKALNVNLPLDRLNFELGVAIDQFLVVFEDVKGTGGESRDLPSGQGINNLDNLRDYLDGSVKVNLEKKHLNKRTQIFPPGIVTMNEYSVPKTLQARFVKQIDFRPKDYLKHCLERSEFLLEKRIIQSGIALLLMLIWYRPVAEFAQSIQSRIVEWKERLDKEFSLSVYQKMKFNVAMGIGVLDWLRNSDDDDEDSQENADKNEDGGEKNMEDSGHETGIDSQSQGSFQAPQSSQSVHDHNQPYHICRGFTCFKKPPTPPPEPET
Nonstructural protein 1, sequence (Q194T2 whole entry): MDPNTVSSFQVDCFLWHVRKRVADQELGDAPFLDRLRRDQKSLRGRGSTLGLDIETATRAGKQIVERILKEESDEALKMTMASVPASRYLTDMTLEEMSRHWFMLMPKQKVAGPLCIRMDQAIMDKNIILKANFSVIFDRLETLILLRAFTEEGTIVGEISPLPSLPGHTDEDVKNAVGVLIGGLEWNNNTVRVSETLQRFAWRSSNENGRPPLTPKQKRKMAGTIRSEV
FAD-linked sulfhydryl oxidase ALR, sequence (P55789 whole entry): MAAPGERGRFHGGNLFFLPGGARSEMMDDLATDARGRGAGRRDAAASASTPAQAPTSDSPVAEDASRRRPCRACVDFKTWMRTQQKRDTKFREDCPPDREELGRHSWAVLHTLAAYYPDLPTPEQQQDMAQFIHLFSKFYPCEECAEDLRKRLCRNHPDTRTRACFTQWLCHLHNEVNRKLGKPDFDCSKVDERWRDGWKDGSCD

## Cc1ccc2nc(-c3ccccn3)c(NC3CCCC3)n2c1
INS1
  AC50: 8.58 µM (active)
[1]
  EC50: 1.74 µM (active)
[2]
  CC50: > 20 µM (active)
[3]
  AC50: 7.26 µM (active)
[4]
  EC50: > 60 µM (not active)
[5]
  CC50: 16.5 µM (active)
Large T antigen
  IC50: 11.6 µM (active)
cells
  IC50: 4.95 µM (active)
[6]
  CC50: 14.3 µM (active)

## Cc1ccc(OCCCCCCN2CCNCC2)c(Br)c1
Vero [7]
  CC50: 21.8 µM (active)
Vero [8]
  IC50: 19.7 µM (active)

## Cc1csc(/N=C(/NCCN2CCOCC2)Nc2nc(C)cs2)n1
P388
  GI50: > 31.6 µM (inactive)
P388/ADR
  GI50: > 80.4 µM (inactive)
SN12K1
  GI50: > 100 µM (inactive)

## N=C(N)NCCCCCCC(=O)NC(O)C(=O)NCCCCNCCCN (stereo unspecified)
P388
  GI50: 30.1 µM (inactive)
P388/ADR
  GI50: 55.2 µM (inactive)
SN12K1
  GI50: 731 µM (inactive)

## COC(=O)C(C/C=C(\C)c1ccc(Cl)cc1)C(C)=O (stereo unspecified)
P388
  GI50: 20 µM (inactive)
P388/ADR
  GI50: 23.6 µM (inactive)
SN12K1
  GI50: 21.8 µM (inactive)

## C/C(=N\Nc1nc2ccccc2[nH]1)c1ccc(N2CCOCC2)cc1
[2]
  CC50: > 20 µM (active)
cells
  IC50: 20.3 µM (active)

## C/C(=N\NC(=O)c1c[nH]c2ccccc12)c1ccccn1
Nonstructural protein 1
  IC50: 3.17 µM (active)
[1]
  EC50: 1.73 µM (active)
[2]
  CC50: 12.1 µM (active)
[4]
  EC50: 3.97 µM (active)
[5]
  CC50: 2.01 µM (active)
cells
  IC50: 4.29 µM (active)
[6]
  CC50: 6.55 µM (active)

## c1ccc(CCCCN2CCC(c3ccccc3)CC2)cc1
Cytochrome P450 3A4
  AC50: inconclusive

## O=C1c2ccccc2-n2c1nc1ccccc1c2=O [TRYPTANTHRIN]
[2]
  CC50: > 20 µM (active)
[9]
  AC50: 1.08 µM (active)
Protein RecA
  EC50: 643 nM (active)
[5]
  CC50: > 20 µM (active)
cells
  IC50: 0.33 µM (active)
[6]
  CC50: 17.5 µM (active)

Reference: ChEMBL document CHEMBL1201862, “PubChem BioAssay data set” (2004)
